Experimental data as given in patent US8436183B2, “Synthetic multimerizing agents” (ARIAD Pharmaceuticals, Inc., priority 1994, dated 2013).
pEC50, pIC50: −log10 of the molar value. Where a name gives a salt, the structure may show the parent alone. Read-outs that look alike come from different tables or passages of the source.

Tests used:
[1] = biological target: T1, FAS-FKBP fusion (36V FKBP) in HT1080 cells (Homo sapiens, UniProt P62942, F37V); assay: Apoptosis Assay: Fas killing (36V, stable); format: cell-based; settings: mean values
T1 construct: fused on or other part: Fas intracellular effector domain (gives the death read-out)
From the text: In this case, one uses cells which constitutively express a detectable product. The cells also contain and are capable of expressing DNAs encoding chimeric proteins comprising one or more immunophilin-derived ligand binding domains and one or more effector domains, such as the intracellular domain of FAS, capable, upon multimerization, of triggering cell death. […] The cells are maintained or cultured in a culture medium permitting cell growth or continued viability. The cells or medium are assayed for the presence of the constitutive cellular product, and a base-line level of reporter is thus established. One may use cells engineered for constitutive production of hGH or any other conveniently detectable product to serve as the reporter. […]
The ability of a dimerizer to activate the Fas signal transduction pathway and trigger cell death in cells engineered to express a FAS-FKBP fusion can be tested in cells appropriately transduced by retroviral vectors to express the desired fusion protein. […] The next day, medium is removed and replaced with medium containing 10% Alamar Blue viability indicator, which changes absorbance properties as a function of reducing agent released into the medium by cell metabolism. Alternatively, cells are counted. Optical density at the appropriate wavelength is measured using a platereader spectroscope.

[2] = biological target: FKBP F36L (Homo sapiens, UniProt P62942, F37L); assay: Competitive Binding FP Assay, F36L mutant FKBP
Method: (§1) Affinities of bumped synthetic ligands for FKBP were determined using a competitive assay based on fluorescence polarization (FP). […] The assay yields IC50 values that are related to the affinity of the competitive ligand for the protein.
(§2) For competition FP assays, the appropriate protein concentration (giving ˜90% binding of probe) was first determined by direct binding of probe to protein (see eg. Beacon FP System Applications Guide, Panvera Corp, Madison, Wis.). All binding assay procedures were performed at room temperature. Serial dilutions of each protein were prepared in 50 mM potassium phosphate pH 7.8/150 mM NaCl/100 μg/ml bovine gamma globulin (“FP buffer”: prepared using only low-fluorescence reagents from Panvera), and 100 μl volumes transferred to wells of a Dynatech micro-fluor black 96-well fluorescence plate. 100 μl of 10 nM 4 in FP buffer plus 2% ethanol (prepared from an ethanol stock of the probe) was then added to each well with mixing. Duplicate control wells contained FP buffer instead of FKBP (for 0% probe binding) or 10 μM wild-type FKBP (for 100% binding).
The plates were stored covered in the dark for approximately 30 min to permit equilibration and then the fluorescence polarization of the sample in each well was read on a Jolley FPM-2 FP plate reader (Jolley Consulting and Research, Inc., Grayslake, Ill.) in accordance with the manufacturer's recommendations. Polarization (mP units) for each protein concentration was plotted (y axis) vs. final concentration of FKBP (x axis). Concentrations were determined by OD280 measurements. Arbitrary units were used for non-quantitated proteins. […]
(§3) The plates were stored covered in the dark for approximately 30 min to permit equilibration and then the fluorescence polarization of the sample in each well read on a Jolley FPM-2 FP plate reader (Jolley Consulting and Research, Inc., Grayslake, Ill.) in accordance with the manufacturer's recommendations. […] For incomplete curves the IC50 was determined by interpolation.

[3] = biological target: T2, wild-type human FKBP12 (Homo sapiens, UniProt P62942); assay: Competitive Binding FP Assay, wild-type FKBP; settings: for wild-type, % @ 100000: Synthetic Monomers table, @ 100000 nM competitor
Method: as §1, §2
(§4) The plates were stored covered in the dark for approximately 30 min to permit equilibration and then the fluorescence polarization of the sample in each well was read on a Jolley FPM-2 FP plate reader (Jolley Consulting and Research, Inc., Grayslake, Ill.) in accordance with the manufacturer's recommendations. Polarization (mP units) for each protein concentration was plotted (y axis) vs. final concentration of FKBP (x axis). Concentrations were determined by OD280 measurements. Arbitrary units were used for non-quantitated proteins. Non-linear least square analysis was used to fit the curve and extract the Kd of the protein for the probe (in cases where the protein concentration was known) using the following four-parameter equation: y=M3+(((x+M1+M2)−SQRT(((x+M1+M2)^2)−(4*x*M1)))/(2*(M1)))*(M4−M3) where M1 is the probe concentration, M2 the Kd, and M3 and M4 the minimum and maximum mP values respectively.
(§5) Serial 10-fold dilutions of each synthetic ligand were prepared in 100% ethanol in glass vials and stored on ice. All other manipulations were performed at room temperature. […] Finally, a probe solution was prepared containing 10 nM 4 in 0.1% ethanol/FP buffer, and 100 μl added to each well with mixing. […]
as §3

[4] = biological target: T3, FKBP F36I (Homo sapiens, UniProt P62942, F37I); assay: Competitive Binding FP Assay, F36I mutant FKBP
T3 construct: made in house
Method: as §1, §2, §4
(§6) Serial 10-fold dilutions of each synthetic ligand were prepared in 100% ethanol in glass vials and stored on ice. All other manipulations were performed at room temperature. […] 2.0 μl samples of the synthetic ligands were then transferred in duplicate to the wells with mixing. Finally, a probe solution was prepared containing 10 nM 4 in 0.1% ethanol/FP buffer, and 100 μl added to each well with mixing. Duplicate control wells contained ethanol instead of FKBP ligand (for 100% probe binding) or ethanol instead of FKBP ligand and FP buffer instead of FKBP (0% binding).
(§7) The plates were stored covered in the dark for approximately 30 min to permit equilibration and then the fluorescence polarization of the sample in each well read on a Jolley FPM-2 FP plate reader (Jolley Consulting and Research, Inc., Grayslake, Ill.) in accordance with the manufacturer's recommendations. The mean polarization (mP units) for each competitor concentration, in some cases converted to % total binding by reference to the control values, was plotted (y axis) vs. log molar final concentration of competitor (x axis). Non-linear least square analysis was used to fit the curve and extract the IC50 using the following equation: y=M1+(M4−M1)/(1+exp(M2*(M3−x))) where M3 is the IC50. For incomplete curves the IC50 was determined by interpolation.

[5] = biological target: T4, FKBP F36A (Homo sapiens, UniProt P62942, F37A); assay: Competitive Binding FP Assay, F36A mutant FKBP
T4 construct: made in house
Method: as §1, §2, §4, §6, §7

[6] = biological target: T5, FKBP F36S (Homo sapiens, UniProt P62942, F37S); assay: Competitive Binding FP Assay, F36S mutant FKBP; settings: Synthetic Monomers table; normalized to FK506 run in the same experiment
T5 construct: made in house
Method: as §1
(§8) For competition FP assays, the appropriate protein concentration (giving ˜90% binding of probe) was first determined by direct binding of probe to protein (see eg. Beacon FP System Applications Guide, Panvera Corp, Madison, Wis.). All binding assay procedures were performed at room temperature. Serial dilutions of each protein were prepared in 50 mM potassium phosphate pH 7.8/150 mM NaCl/100 μg/ml bovine gamma globulin (“FP buffer”: prepared using only low-fluorescence reagents from Panvera), and 100 μl volumes transferred to wells of a Dynatech micro-fluor black 96-well fluorescence plate. 100 μl of 10 nM 4 in FP buffer plus 2% ethanol (prepared from an ethanol stock of the probe) was then added to each well with mixing. […]
(§9) The plates were stored covered in the dark for approximately 30 min to permit equilibration and then the fluorescence polarization of the sample in each well was read on a Jolley FPM-2 FP plate reader (Jolley Consulting and Research, Inc., Grayslake, Ill.) in accordance with the manufacturer's recommendations. […] Concentrations were determined by OD280 measurements. Arbitrary units were used for non-quantitated proteins. […]

[7] = biological target: T6, FKBP F36M (Homo sapiens, UniProt P62942, F37M); assay: Competitive Binding FP Assay, F36M mutant FKBP
T6 construct: made in house
Method: as §1, §2, §4, §6, §7

[8] = biological target: FKBP F36V (Homo sapiens, UniProt P62942, F37V); assay: Competitive Binding FP Assay, F36V mutant FKBP
Method: as §1, §8, §9

[9] = biological target: T2, wild-type human FKBP12
Method: as §1, §2, §4, §5, §3

[10] = Synthetic Monomers table, normalized to FK506 run in the same experiment

T2 sequence (P62942 whole entry): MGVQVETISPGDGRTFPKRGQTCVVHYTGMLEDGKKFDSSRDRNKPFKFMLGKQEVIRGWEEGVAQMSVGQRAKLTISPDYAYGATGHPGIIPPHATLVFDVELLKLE
Sequence of FKBP F36L (P62942 whole entry F37L): as the sequence (P62942 whole entry) above, with F37L counted along it
T4 sequence (P62942 whole entry F37A): as the sequence (P62942 whole entry) above, with F37A counted along it
T6 sequence (P62942 whole entry F37M): as the sequence (P62942 whole entry) above, with F37M counted along it
T3 sequence (P62942 whole entry F37I): as the sequence (P62942 whole entry) above, with F37I counted along it
Sequence of FKBP F36V (P62942 whole entry F37V): as the sequence (P62942 whole entry) above, with F37V counted along it
T1 sequence (P62942 2-108 F37V limits assumed): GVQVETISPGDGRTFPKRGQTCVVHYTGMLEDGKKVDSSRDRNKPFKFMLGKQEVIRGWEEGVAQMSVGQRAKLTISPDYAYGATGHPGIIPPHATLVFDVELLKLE
T5 sequence (P62942 whole entry F37S): as the sequence (P62942 whole entry) above, with F37S counted along it

Compound: AP20187
- pEC50 [1]: > 9.00

Compound: COc1ccc(CC[C@@H](OC(=O)[C@@H]2CCCCN2C(=O)Cc2ccccc2)c2cccc(OCC(=O)O)c2)cc1OC [AP1780]
- pIC50 ([2]; read-out: F36L IC50, Synthetic Monomers table, normalized to FK506 run in the same experiment): 5.45

Compound: COc1ccc(CC[C@@H](OC(=O)[C@@H]2CCCCN2C(=O)C(c2ccccc2)c2ccccc2)c2cccc(OCC(=O)O)c2)cc1OC [AP14245]
- wild-type, % @ 100000 [3]: 73% @ 100000

Compound: CCC(C)(C)C(=O)C(=O)N1CCCC[C@H]1C(=O)O[C@H](CCc1ccc(OC)c(OC)c1)c1cccc(OCC(=O)O)c1 [AP1497]
- pIC50 [4, 10]: 7.37
- pIC50 [5, 10]: 6.76
- pIC50 [6]: 5.74

Compound: COc1ccc(CCC(OC(=O)C2CCCCN2C(=O)C(c2ccccc2)C2CCCC2)c2cccc(OCC(=O)O)c2)cc1OC (mixture of isomers) [AP1778]
- pIC50 [4, 10]: 7.39
- pIC50 [5, 10]: 7.12

Compound: CC[C@H](C(=O)N1CCCC[C@H]1C(=O)O[C@H](CCN1CCOCC1)c1cccc(OCC(=O)O)c1)c1cc(OC)c(OC)c(OC)c1 [AP14246, (1R)-1-(3-(carboxymethoxy)phenyl)-3-(morpholino)-1-propyl (2S)-1-((2S)-(3,4,5-trimethoxyphenyl)butyryl)-2-piperidine carboxylate]
- pIC50 [4]: 7.49
- pIC50 [7]: 7.28
- pIC50 [5]: 7.11
- wild-type, % @ 100000 [3]: 75% @ 100000
- pIC50 [8]: 7.78
- pIC50 [2]: 7.17

Compound: CCC(C(=O)N1CCCC[C@H]1C(=O)O[C@H](CCc1ccc(OC)c(OC)c1)c1cccc(OCC(=O)O)c1)c1ccc2c(c1)OCO2 (stereo partly drawn) [AP1839]
- pIC50 [9]: < 4.77

Compound: CC[C@H](C(=O)N1CCCC[C@H]1C(=O)O[C@H](CCc1cccnc1)c1cccc(OCC(=O)O)c1)c1cc(OC)c(OC)c(OC)c1 [AP14252, hydrochloride]
- pIC50 [4]: 8.17
- pIC50 [7]: 7.27
- pIC50 [5]: 7.20

Compound: COc1ccc(CCC(OC(=O)C2CCCCN2C(=O)C(Cc2ccccc2)c2ccccc2)c2cccc(OCC(=O)O)c2)cc1OC (mixture of isomers) [AP1831]
- pIC50 [4, 10]: 6.91
- pIC50 [7, 10]: 6.77
- pIC50 [5, 10]: 6.35

Compound: CC[C@H](C(=O)N1CCCC[C@H]1C(=O)O[C@H](CCc1ccc(OC)c(OC)c1)c1cccc(OCC(=O)O)c1)c1cc(OC)c(OC)c(OC)c1 [AP1867]
- pIC50 [4]: 8.29
- pIC50 [7]: 8.00
- pIC50 [5]: 7.74
- pIC50 [3]: 5.53
- pIC50 [8]: 8.74
- pIC50 [2]: 8.21

Compound: COc1ccc(CCC(OC(=O)C2CCCCN2C(=O)C(c2ccccc2)C(C)C)c2cccc(OCC(=O)O)c2)cc1OC (mixture of isomers) [AP1781]
- pIC50 [4, 10]: 7.44
- pIC50 [7, 10]: 7.26
- pIC50 [5, 10]: 6.96
